PubChem BioAssay AID652220 (The Scripps Research Institute Molecular Screening Center, 2013)
pIC50: −log10 of the molar value.

Target: Serine/threonine-protein phosphatase PP1-alpha catalytic subunit (Homo sapiens) (UniProt P62136)
Experiment: PP1 inhibitor potency with OMFP substrate, dose response, biochemical, fluorescence, set 3 (AID 652220)
Details: purified PP1alpha, OMFP dephosphorylation

Chain of Serine/threonine-protein phosphatase PP1-alpha catalytic subunit (Homo sapiens) (P62136 whole entry, looked up): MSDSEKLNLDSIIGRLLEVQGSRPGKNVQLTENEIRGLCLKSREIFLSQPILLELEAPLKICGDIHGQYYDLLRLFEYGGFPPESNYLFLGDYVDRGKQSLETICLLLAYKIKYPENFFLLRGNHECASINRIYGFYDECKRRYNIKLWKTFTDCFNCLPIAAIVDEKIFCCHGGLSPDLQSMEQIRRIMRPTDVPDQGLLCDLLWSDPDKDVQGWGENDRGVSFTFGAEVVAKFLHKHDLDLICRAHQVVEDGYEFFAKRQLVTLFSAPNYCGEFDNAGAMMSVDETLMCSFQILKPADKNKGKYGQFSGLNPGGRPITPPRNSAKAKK

pIC50 | SMILES
5.23 | CN1CCN([C@H](c2ncccn2)c2ccc3cccnc3c2O)CC1
5.32 | CN1CCN([C@@H](c2ncccn2)c2ccc3cccnc3c2O)CC1
